The nature of the data set: solvent given as SMILES.

The compound `c1ccc(N(c2ccccc2)c2ccc(-c3ncnc4ccccc34)cc2)cc1` registered an absorption maximum (in ClCCl) of 380 nm.
As for `C(=C\c1nc2c3ccccc3c3ccccc3c2o1)/c1ccccc1`, under “in CC#N”, the absorption maximum worked out at 364 nm.
With `C[Si](C)(C)c1cccc2ccccc12`, the absorption maximum (in C1CCCCC1) is listed as 294 nm.
Under “in CCO”, `CCOC(=O)c1cc(C(=O)OCC)c2ccccc2n1` displayed an absorption maximum of 319 nm.
As for `OCc1cc2c(cc3ccc4cccc5ccc2c3c45)[nH]1`, where the note is “in CCOC(C)=O”, the absorption maximum turned out to be 388 nm.
For `Cc1ccc2nc3[nH]c(=O)[nH]c(=O)c3nc2c1`, the absorption maximum reads like this: (in CC#N) 382 nm; (in ClCCCl) 384 nm.
As for `F[B-]1(F)OC(c2ccccc2)=C(c2ccccc2)c2sc3ccccc3[n+]21`, the absorption maximum (in C1CCOC1) came to 360 nm.
On to `CCCCCCn1c(=O)c2c3[nH]c4ccccc4sc3c3c(=O)n(CCCCCC)c(=O)c3c2c1=O`, for which the absorption maximum (in ClCCl) was 500 nm.
In the case of `CNc1cccc2c1C(=O)c1ccccc1C2=O`, the absorption maximum is given as 488 nm (in C1CCC2CCCCC2C1); 488 nm (in C1CCCCC1); 489 nm (in CC1CCCCC1); 501 nm (in CC#N); 487 nm (in CCC(C)CC); 487 nm (in CCCCCC). The absorption maximum (in CCOC(C)=O) worked out at 497.5 nm.
For the setting “in CCO”, `CC1=C(Cl)C(/C=C/c2ccc3c(c2)c2ccccc2n3Cc2cn(CCC[P+](c3ccccc3)(c3ccccc3)c3ccccc3)nn2)=[N+]2C1=C(c1ccc(I)cc1)c1c(C)c(Cl)c(C)n1[B-]2(F)F` came in with an absorption maximum of 612 nm.
With `COc1ccc(C#Cc2c3cc4ccccc4cc3c(C#Cc3ccc(OC)cc3)c3cc4sc(C)cc4cc23)cc1`, the absorption maximum (in ClCCl) amounted to 615 nm.
For `CCCCN1C(=O)c2c(Br)c(Br)c3c4c(Br)c(Br)c5c6c(c(Br)c(Br)c(c7c(Br)c(Br)c(c2c37)C1=O)c64)C(=O)N(CCCC)C5=O`, under “in ClC(Cl)Cl”, the absorption maximum turned out to be 538 nm.
In turn, `CC(C)(C)NC(=O)c1ccc(F)c2ccc3c4ccccc4c4ccccc4c3c12` came in with an absorption maximum (in ClCCl) of 334 nm.
`N#C/C(=C\c1cc(/C=C(\C#N)c2ccc(C(F)(F)F)cc2)c(-c2ccc(N(c3ccccc3)c3ccccc3)cc2)cc1-c1ccc(N(c2ccccc2)c2ccccc2)cc1)c1ccc(C(F)(F)F)cc1`: the absorption maximum is listed as 405 nm (in C1CCCCC1); 402 nm (in C1CCOC1); 402 nm (in CCCCCC); 397 nm (in CCOC(C)=O); 408 nm (in Cc1ccccc1); 407 nm (in ClC(Cl)Cl). Besides, under “in ClCCl”, the absorption maximum came out at 405 nm.
In turn, `CCC(C)(C)c1ccc2c(c1)C(CCOC)(CCOC)c1cc(-c3ccc(-c4ccc5c(c4)C(CCOC)(CCOC)c4cc(C(C)(C)CC)ccc4-5)cc3)ccc1-2` returned an absorption maximum (in C1CCCCC1) of 332 nm.
As for `O=S(=O)(c1ccccc1)c1ccc(-c2ccc3c(c2)c2cc(-c4ccc(S(=O)(=O)c5ccccc5)cc4)ccc2n3-c2ccccc2)cc1`, the absorption maximum by setting is: (in CCCCCC) 343 nm; (in CN(C)C=O) 345 nm; (in CO) 343 nm; (in Cc1ccccc1) 340 nm; (in ClCCl) 343 nm.
Consider `C#CCNC1=C2C=C(c3cc4n(c3)[B-](F)(F)[N+]3=CC=CC3=C4c3c(C)cc(C)cc3C)C(C)=[N+]2[B-](F)(F)n2c(C)ccc21`, for which the absorption maximum by setting is: (in C1CCCCC1) 568 nm; (in CCOC(C)=O) 568 nm.
`F[B-]1(F)n2c(c(-c3ccccc3)c(-c3ccccc3)c2-c2ccccc2)C(c2ccccc2)=C2C(c3ccccc3)=C(c3ccccc3)C(c3ccccc3)=[N+]21` had an absorption maximum (in C1CCOC1) of 573 nm.
`CC1(C)c2cc(/C=C/c3nc(/C=C/c4ccc5c(c4)C(C)(C)c4cc(N(c6ccccc6)c6ccc7ccccc7c6)ccc4-5)nc(/C=C/c4ccc5c(c4)C(C)(C)c4cc(N(c6ccccc6)c6ccc7ccccc7c6)ccc4-5)n3)ccc2-c2ccc(N(c3ccccc3)c3ccc4ccccc4c3)cc21` displayed an absorption maximum (in C1CCOC1) of 403 nm.
Regarding `CC(C)(C)c1ccc2oc3nc4oc5ccc(-n6c7ccccc7c7cc(-n8c9ccccc9c9ccccc98)ccc76)cc5c4cc3c2c1`, where the note is “in ClC(Cl)Cl”, the absorption maximum was found to be 348 nm.
In the case of `CCOC(=O)CSc1nc(-c2ccccc2)c(C)c(C#N)c1C#N`, the absorption maximum is, setting by setting: (in C1COCCO1) 350 nm; (in CC#N) 365 nm; (in CCO) 367 nm; (in CCOC(C)=O) 366 nm; (in ClC(Cl)Cl) 376 nm; (in c1ccccc1) 372 nm.
Under “in ClCCl”, `Clc1ccccc1N1c2sc3ccccc3c2Sc2sc3ccccc3c21` had an absorption maximum of 314 nm.
With `CN(C)c1cc(-c2ccc(C#Cc3ccncc3)cc2)cc2ccccc12`, the absorption maximum came out at 306.26 nm (in CC#N), 309.39 nm (in CCO) and 311 nm (in ClCCl).
In the case of `CN(C)c1ccc(C(=O)Nc2ccc([N+](=O)[O-])cc2)cc1`, the absorption maximum was 337 nm (in C1CCCCC1), 353 nm (in C1CCOC1), 354 nm (in CC#N) and 345 nm (in CCOCC).
On to `CC(C)(C)c1ccc(-c2nc3c4ccccc4c4ccccc4c3n2-c2ccc(C(C)(C)C)cc2)cc1`, for which the absorption maximum by setting is: (in C1CCOC1) 314 nm; (in C1COCCO1) 315 nm; (in CC#N) 310 nm; (in CCCCCC) 315 nm; (in CCCCOCCCC) 315 nm; (in CCN(CC)CC) 316 nm. Further, the absorption maximum reads like this: (in CCOC(C)=O) 313 nm; (in CCOCC) 313 nm; (in CN(C)C=O) 313 nm; (in Cc1ccccc1) 316 nm; (in ClC=C(Cl)Cl) 316 nm; (in ClCCl) 313 nm.
Turning to `CCCBr`, the absorption maximum (in CCCCCC) is listed as 208 nm.
For the compound `C(#Cc1ccccc1)C1=Cc2ccc3ccccc3c2NB1c1ccccc1`, the absorption maximum (in C1CCCCC1) is on record as 387 nm.
Consider `C(=C\c1ccc(Nc2ccccc2)cc1)/c1ccccc1`, for which the absorption maximum is on record as 351 nm (in CC#N) and 346 nm (in CCCCCC).
The compound `C/C(=C\c1ccc(Cl)cc1)c1nc2ccccc2o1` had an absorption maximum (in C1CCCCC1) of 320 nm and an absorption maximum (in CO) of 320 nm.
For the compound `c1ccc2c(-c3cc(-c4nccs4)nc(-c4nccs4)c3)cccc2c1`, the absorption maximum by setting is: (in CC#N) 324 nm; (in CCCCCC) 325 nm; (in CO) 325 nm; (in ClC(Cl)Cl) 330 nm.
In turn, `F[Si-](F)(c1c2ccccc2cc2ccccc12)(c1c2ccccc2cc2ccccc12)c1c2ccccc2cc2ccccc12` displayed an absorption maximum (in C1CCOC1) of 392 nm.
`CCN(CC)c1ccc(-c2nc3c4ccccc4n(C)c3nc2-c2ccc([B-](F)(c3c(C)cc(C)cc3C)c3c(C)cc(C)cc3C)cc2)cc1`: for the setting “in C1CCOC1”, the absorption maximum worked out at 411.11 nm.
Under “in Cc1ccccc1”, `O=S(=O)(c1ccc(-c2ccc3c(c2)c2ccccc2n3-c2ccccc2)cc1)c1ccc(-c2ccc3c(c2)c2ccccc2n3-c2ccccc2)cc1` came in with an absorption maximum of 332 nm.
In turn, `CC(C)(C)c1ccc2c(c1)c1cc(C(C)(C)C)ccc1n2-c1ccc(C#Cc2ccc(C#Cc3ccc(C=C(C#N)C#N)cc3)cc2)cc1` returned an absorption maximum (in ClCCl) of 382 nm.
For the setting “in ClCCl”, `COc1ccc(-c2c3cc4ccccc4cc3c(C#Cc3ccccc3)c3cc4cc(C)sc4cc23)cc1` gave an absorption maximum of 580 nm.
As for `CCOC(=O)c1c2c3c(ccc(OC)c3c3cc4c(cc13)[Si](C)(C)O[Si]4(C)C)N(C)C2=O`, for the setting “in CC#N”, the absorption maximum is on record as 378 nm.
With `CC[n+]1ccc2ccccc2c1/C=C/c1c([O-])ccc2ccc(=O)oc12`, the absorption maximum (in C1CCOC1) is 629.86 nm; the absorption maximum (in CC#N) amounted to 591.03 nm; the absorption maximum (in CC(C)=O) amounted to 603.44 nm; the absorption maximum (in CO) amounted to 535.64 nm; the absorption maximum (in CS(C)=O) is recorded as 593.42 nm; the absorption maximum (in Cc1ccccc1) was 655.01 nm. The absorption maximum reads like this: (in ClC(Cl)Cl) 614.58 nm; (in ClCCl) 614.58 nm; (in O) 491.71 nm.
`N#C/C(=C\c1ccc(C#N)cc1)c1nc(-c2ccc(Cl)cc2)c(-c2ccccc2)s1` came in with an absorption maximum (in CC#N) of 377 nm.
`Cc1cc(C)c(C2=C3C=C(/C=C/C(=O)OCc4ccccc4)C=[N+]3[B-](F)(F)n3cc(/C=C/C(=O)OCc4ccccc4)cc32)c(C)c1` had an absorption maximum (in ClCCl) of 576 nm.
Regarding `CCC(CC)COC1=CC2=C3c4cc(OCC(CC)CC)c(-c5ccccc5)n4[B-](F)(F)[n+]4nnn(c43)[B-](F)(F)[N+]2=C1c1ccccc1`, the absorption maximum by setting is: (in C1CCOC1) 691 nm; (in CC#N) 687 nm; (in ClCCl) 700 nm.
On to `COc1cc(-c2cc(N3CCCCC3)c(C#N)c3c2-c2cccc4cccc-3c24)cc(OC)c1OC`, for which the absorption maximum (in O) is 430 nm.
In the case of `c1ccc(COc2cc(C[n+]3ccc(-c4cc[n+](Cc5cc(OCc6ccccc6)cc(OCc6ccccc6)c5)cc4)cc3)cc(OCc3ccccc3)c2)cc1`, the absorption maximum (in CC#N) stood at 261 nm.
`CCCc1ccc2c(c1)cc1n2B2c3c4c-1cccc4cc1cccc(c31)-c1cc3cc(CCC)ccc3n12`: the absorption maximum (in C1CCOC1) came to 537 nm.
The compound `CCCC1=C(CCC)c2cccc3c2c(cc2nc4ccccc4nc23)O1` registered an absorption maximum (in ClCCl) of 499 nm.
Compound `c1ccc(-c2nc3cc4c(cc3n2-c2ccccc2)nc(-c2ccccc2)n4-c2ccccc2)cc1` showed an absorption maximum (in CC#N) of 330 nm.
The compound `COc1ccc(/C=C/c2cc(/C=C/c3ccc(OC)cc3)nc(/C=C/c3ccccc3)n2)cc1` gave an absorption maximum (in ClCCl) of 369 nm.
Turning to `O=c1c2ccccc2c2c3c(cccc13)c(-c1ccccc1)c1c3cccc4cccc(c43)c12`, the absorption maximum is recorded as 462 nm (in CC#N) and 461 nm (in CO).
Where the note is “in ClCCl”, `CCCCCCn1c2c(c3cc(-c4ccc5ccc6cccc7ccc4c5c67)ccc31)-c1c(c3cc(-c4ccc5ccc6cccc7ccc4c5c67)ccc3n1CCCCCC)-c1c(c3cc(-c4ccc5ccc6cccc7ccc4c5c67)ccc3n1CCCCCC)-c1c-2c2cc(-c3ccc4ccc5cccc6ccc3c4c56)ccc2n1CCCCCC` showed an absorption maximum of 340 nm.

Source of the values: the Deep4Chem optical property database.
